Experimental data from US20250114345A1, “COMPOUNDS AND COMPOSITIONS AS CBP/P300 DEGRADERS AND USES THEREOF” (Oncopia Therapeutics, Inc. d/b/a/ SK Life Science Labs, priority 2023, published 2025).

Assays:
p300 = target: T1, p300 (Homo sapiens, UniProt Q09472); assay: P300 degradation, HiBit technology in A549 P300 HiBit cells (2 h); type: cell-based; settings: 2 hrs post treatment; for Dmax: A549, A549 P300 HiBit cells; for DC50: A549 P300 HiBit cells
T1 construct: host or cells: A549 P300 HiBit cells
T1 sequence (Q09472 whole entry): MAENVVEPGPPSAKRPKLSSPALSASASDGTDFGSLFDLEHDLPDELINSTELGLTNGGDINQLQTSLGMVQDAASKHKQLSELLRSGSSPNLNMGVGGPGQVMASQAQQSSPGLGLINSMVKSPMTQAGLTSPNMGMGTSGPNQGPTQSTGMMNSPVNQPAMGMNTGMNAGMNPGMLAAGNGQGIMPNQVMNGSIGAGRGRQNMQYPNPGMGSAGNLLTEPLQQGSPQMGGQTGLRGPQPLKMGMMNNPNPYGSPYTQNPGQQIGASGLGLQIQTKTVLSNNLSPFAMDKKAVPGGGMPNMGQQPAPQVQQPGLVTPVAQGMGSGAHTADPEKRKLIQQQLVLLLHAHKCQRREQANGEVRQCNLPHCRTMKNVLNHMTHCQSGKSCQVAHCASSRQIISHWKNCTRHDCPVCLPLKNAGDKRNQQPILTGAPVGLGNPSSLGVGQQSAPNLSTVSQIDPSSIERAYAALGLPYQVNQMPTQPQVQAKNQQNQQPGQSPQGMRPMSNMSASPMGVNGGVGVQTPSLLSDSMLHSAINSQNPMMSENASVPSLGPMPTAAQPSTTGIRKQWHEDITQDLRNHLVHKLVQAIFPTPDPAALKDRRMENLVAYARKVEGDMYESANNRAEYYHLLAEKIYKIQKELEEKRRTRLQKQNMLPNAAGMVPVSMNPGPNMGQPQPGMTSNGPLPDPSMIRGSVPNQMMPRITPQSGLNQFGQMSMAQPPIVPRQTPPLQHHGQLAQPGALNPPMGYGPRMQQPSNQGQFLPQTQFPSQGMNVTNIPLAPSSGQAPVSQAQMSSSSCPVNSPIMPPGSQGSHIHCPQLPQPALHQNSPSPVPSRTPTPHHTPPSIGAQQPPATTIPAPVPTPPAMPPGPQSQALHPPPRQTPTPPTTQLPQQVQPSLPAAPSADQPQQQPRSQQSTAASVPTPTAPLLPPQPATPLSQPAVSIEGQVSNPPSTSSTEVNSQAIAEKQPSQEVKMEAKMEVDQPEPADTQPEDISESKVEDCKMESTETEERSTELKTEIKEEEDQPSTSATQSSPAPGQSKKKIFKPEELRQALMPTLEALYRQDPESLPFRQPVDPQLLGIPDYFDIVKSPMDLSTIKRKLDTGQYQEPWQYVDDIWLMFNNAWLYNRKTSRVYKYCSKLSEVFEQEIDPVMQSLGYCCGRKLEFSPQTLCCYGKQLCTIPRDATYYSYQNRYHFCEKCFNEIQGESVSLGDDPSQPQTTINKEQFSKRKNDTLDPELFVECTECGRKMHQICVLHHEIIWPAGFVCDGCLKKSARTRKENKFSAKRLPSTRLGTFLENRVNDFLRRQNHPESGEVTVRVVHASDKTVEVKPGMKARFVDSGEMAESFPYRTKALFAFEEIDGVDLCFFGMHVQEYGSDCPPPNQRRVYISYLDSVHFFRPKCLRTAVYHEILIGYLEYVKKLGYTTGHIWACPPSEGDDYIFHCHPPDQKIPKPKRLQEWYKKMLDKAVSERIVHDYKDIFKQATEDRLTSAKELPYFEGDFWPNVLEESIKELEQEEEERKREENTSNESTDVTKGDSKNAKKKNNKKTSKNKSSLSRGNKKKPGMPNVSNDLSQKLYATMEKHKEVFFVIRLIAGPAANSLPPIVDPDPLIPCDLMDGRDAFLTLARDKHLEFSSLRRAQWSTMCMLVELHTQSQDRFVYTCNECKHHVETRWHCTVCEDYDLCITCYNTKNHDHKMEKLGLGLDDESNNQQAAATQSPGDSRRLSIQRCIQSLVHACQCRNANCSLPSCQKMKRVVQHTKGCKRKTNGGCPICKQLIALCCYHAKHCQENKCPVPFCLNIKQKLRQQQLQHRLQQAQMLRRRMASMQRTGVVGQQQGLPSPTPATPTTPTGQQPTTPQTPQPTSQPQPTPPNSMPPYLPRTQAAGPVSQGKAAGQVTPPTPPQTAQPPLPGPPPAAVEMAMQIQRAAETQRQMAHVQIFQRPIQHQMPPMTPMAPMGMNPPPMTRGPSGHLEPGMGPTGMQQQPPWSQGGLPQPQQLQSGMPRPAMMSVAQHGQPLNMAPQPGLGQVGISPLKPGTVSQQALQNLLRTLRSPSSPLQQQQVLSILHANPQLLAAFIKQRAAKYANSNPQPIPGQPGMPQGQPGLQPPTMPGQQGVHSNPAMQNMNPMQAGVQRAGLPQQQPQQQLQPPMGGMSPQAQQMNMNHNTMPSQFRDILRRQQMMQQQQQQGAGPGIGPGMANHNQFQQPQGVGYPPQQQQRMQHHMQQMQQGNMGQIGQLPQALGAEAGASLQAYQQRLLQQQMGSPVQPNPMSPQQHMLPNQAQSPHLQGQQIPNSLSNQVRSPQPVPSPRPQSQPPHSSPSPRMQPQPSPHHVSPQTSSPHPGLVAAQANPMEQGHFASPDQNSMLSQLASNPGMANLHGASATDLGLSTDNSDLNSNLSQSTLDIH
Outline: (§1)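 Cells: A549 HiBiT-tagged lines, 0.2×10^4/well, F-12K + 10% HI-FBS, equilibrated overnight. Tx: serial dilution of cpd (10 mM DMSO stock). Readout: HiBiT lytic reagent, 10 min RT shaking, luminescence → potency, Dmax.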

CBP = target: T2, CBP (Homo sapiens, UniProt Q92793); assay: CBP degradation, HiBit technology in A549 CBP HiBit cells (24 h); type: cell-based; settings: 24 hrs post treatment
T2 construct: host or cells: A549 CBP HiBit cells
T2 sequence (Q92793 whole entry): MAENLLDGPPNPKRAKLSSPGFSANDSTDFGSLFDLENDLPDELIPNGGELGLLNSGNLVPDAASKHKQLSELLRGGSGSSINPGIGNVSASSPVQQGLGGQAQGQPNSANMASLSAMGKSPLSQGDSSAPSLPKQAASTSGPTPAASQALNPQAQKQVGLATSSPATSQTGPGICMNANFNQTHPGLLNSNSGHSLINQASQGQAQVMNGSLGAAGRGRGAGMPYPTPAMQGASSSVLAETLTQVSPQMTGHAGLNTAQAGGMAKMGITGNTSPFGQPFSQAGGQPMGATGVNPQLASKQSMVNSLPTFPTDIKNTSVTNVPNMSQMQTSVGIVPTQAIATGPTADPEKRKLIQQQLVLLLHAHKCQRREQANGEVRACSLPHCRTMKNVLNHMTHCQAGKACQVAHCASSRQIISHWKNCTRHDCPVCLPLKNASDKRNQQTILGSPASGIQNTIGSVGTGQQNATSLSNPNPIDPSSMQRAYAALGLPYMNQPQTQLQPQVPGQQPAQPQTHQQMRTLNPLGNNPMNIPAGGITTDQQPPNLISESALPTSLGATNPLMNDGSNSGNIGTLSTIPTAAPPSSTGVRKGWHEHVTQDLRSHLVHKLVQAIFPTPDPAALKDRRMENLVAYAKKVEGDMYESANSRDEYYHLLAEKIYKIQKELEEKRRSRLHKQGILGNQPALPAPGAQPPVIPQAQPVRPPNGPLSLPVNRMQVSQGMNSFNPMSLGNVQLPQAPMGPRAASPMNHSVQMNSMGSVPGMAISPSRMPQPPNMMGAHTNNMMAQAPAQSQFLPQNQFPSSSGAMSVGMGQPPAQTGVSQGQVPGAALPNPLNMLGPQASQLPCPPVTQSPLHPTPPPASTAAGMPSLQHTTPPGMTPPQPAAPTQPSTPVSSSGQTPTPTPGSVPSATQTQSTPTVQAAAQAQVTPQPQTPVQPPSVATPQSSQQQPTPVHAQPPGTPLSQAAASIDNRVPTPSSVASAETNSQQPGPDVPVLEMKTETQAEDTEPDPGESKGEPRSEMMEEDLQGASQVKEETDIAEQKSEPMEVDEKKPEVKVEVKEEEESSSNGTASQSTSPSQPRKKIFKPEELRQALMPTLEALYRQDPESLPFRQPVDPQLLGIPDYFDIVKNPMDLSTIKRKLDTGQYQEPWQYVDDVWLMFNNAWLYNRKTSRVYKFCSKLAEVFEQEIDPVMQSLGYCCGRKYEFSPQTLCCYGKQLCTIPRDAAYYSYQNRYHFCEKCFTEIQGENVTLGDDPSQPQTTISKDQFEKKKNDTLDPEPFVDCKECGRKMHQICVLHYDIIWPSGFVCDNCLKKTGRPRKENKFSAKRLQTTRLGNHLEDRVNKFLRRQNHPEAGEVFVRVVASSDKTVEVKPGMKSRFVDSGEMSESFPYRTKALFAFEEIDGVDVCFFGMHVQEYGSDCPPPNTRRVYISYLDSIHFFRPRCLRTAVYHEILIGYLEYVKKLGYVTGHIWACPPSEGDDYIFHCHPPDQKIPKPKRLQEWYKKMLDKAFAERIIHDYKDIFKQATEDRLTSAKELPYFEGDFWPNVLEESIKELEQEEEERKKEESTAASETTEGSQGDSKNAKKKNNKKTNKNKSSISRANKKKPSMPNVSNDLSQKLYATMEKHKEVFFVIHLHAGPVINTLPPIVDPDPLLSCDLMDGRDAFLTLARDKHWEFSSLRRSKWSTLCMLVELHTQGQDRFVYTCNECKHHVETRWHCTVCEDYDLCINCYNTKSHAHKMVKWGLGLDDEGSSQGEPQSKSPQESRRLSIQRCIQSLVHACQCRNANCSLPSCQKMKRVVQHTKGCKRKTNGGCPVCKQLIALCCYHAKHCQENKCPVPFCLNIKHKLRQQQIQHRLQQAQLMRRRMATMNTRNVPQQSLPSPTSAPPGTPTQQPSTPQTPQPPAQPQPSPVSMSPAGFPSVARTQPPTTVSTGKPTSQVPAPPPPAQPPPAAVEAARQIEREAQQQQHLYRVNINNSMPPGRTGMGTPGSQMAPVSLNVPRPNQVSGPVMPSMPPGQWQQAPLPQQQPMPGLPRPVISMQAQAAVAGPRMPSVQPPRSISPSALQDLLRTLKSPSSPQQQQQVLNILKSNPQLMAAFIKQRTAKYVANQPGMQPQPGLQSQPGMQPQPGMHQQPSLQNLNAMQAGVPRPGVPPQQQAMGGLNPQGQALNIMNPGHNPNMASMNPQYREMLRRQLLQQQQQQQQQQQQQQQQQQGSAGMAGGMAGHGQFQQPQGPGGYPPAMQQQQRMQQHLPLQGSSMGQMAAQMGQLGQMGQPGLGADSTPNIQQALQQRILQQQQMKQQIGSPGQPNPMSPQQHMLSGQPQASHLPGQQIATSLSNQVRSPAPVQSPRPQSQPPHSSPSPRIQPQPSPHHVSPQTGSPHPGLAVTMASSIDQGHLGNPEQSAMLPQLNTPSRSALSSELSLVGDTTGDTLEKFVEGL
Outline: as §1

| Compound | Dmax (p300) [%] | DC50 (p300) [nM] | DC50 (CBP) [nM] | Dmax (CBP) [%] |
| --- | --- | --- | --- | --- |
| Cc1cc(-c2cc3cccc(-c4cc(C(C)C)c5c(c4)n(C)c(=O)n5C)c3cn2)cnc1C(=O)NCC#Cc1cccc(NC23CC(C2)C(=O)NC3=O)c1 [Example A177, N-(3-(3-((2,4-dioxo-3-azabicyclo[3.1.1]heptan-1-yl)amino)phenyl)prop-2-yn-1-yl)-5-(8-(7-isopropyl-1,3-dimethyl-2-oxo-2,3-dihydro-1H-benzo[d]imidazol-5-yl)isoquinolin-3-yl)-3-methylpicolinamide] | > 80 | 10 to 99 | > 1000 | < 20 |
| CC(C)c1cc(C2=CC(C)(C)Oc3cc(-c4ccc(C(=O)NCC#Cc5ccc6occ(C7CCC(=O)NC7=O)c6c5)nc4)ncc32)cc2c1n(C)c(=O)n2C (stereo not shown) [Example A75, N-(3-(3-(2,6-dioxopiperidin-3-yl)benzofuran-5-yl)prop-2-yn-1-yl)-5-(4-(7-isopropyl-1,3-dimethyl-2-oxo-2,3-dihydro-1H-benzo[d]imidazol-5-yl)-2,2-dimethyl-2H-pyrano[3,2-c]pyridin-7-yl)picolinamide] | > 80 | 1 to 9.9 | > 1000 | < 20 |
| Cc1cc(-c2ncc(N(C)c3cc(C4CCOCC4)c4c(c3)n(C)c(=O)n4C)cn2)cnc1C(=O)NCC#Cc1ccc2occ([C@@H]3CCC(=O)NC3=O)c2c1 [Example A55, (S)-5-(5-((1,3-dimethyl-2-oxo-7-(tetrahydro-2H-pyran-4-yl)-2,3-dihydro-1H-benzo[d]imidazol-5-yl)(methyl)amino)pyrimidin-2-yl)-N-(3-(3-(2,6-dioxo-piperidin-3-yl)benzofuran-5-yl)prop-2-yn-1-yl)-3-methylpicolinamide] | > 80 | 1 to 9.9 | > 1000 | < 20 |

More lines, now with the values ahead:

| Dmax (p300) [%] | DC50 (p300) [nM] | DC50 (CBP) [nM] | Dmax (CBP) [%] | Compound |
| --- | --- | --- | --- | --- |
| > 80 | < 1 | 1 to 9.9 | 40 to 59 | Cc1cc2c(N3CCCc4cc(-c5ccc(C(=O)NCC#Cc6cc7c(C8CCC(=O)NC8=O)cccc7o6)nc5)ncc43)cc(C3CCOCC3)nc2n(C)c1=O (stereo not shown) [Example B169, 5-(1-(6,8-dimethyl-7-oxo-2-(tetrahydro-2H-pyran-4-yl)-7,8-dihydro-1,8-naphthyridin-4-yl)-1,2,3,4-tetrahydro-1,7-naphthyridin-6-yl)-N-(3-(4-(2,6-dioxopiperidin-3-yl)benzofuran-2-yl)prop-2-yn-1-yl)picolinamide] |
| > 80 | 1 to 9.9 | > 1000 | < 20 | Cc1cc2c(-c3cccc4cc(-c5ccc(C(=O)NCC#Cc6ccc7occ(C8CCC(=O)NC8=O)c7c6)nc5)ncc34)nc(OC(C)C)cc2n(C)c1=O (stereo not shown) [Example B88, N-(3-(3-(2,6-dioxopiperidin-3-yl)benzofuran-5-yl)prop-2-yn-1-yl)-5-(8-(7-isopropoxy-1,3-dimethyl-2-oxo-1,2-dihydro-1,6-naphthyridin-5-yl)isoquinolin-3-yl)picolinamide] |
| > 80 | 1 to 9.9 | > 1000 | < 20 | Cc1cc2c(N3CCCc4nc(-c5ccc(C(=O)NCC#Cc6cc7c(C8CCC(=O)NC8=O)cccc7s6)nc5)ncc43)cc(C3CCOCC3)cc2n(C)c1=O (stereo not shown) [Example B79, 5-(5-(1,3-dimethyl-2-oxo-7-(tetrahydro-2H-pyran-4-yl)-1,2-dihydroquinolin-5-yl)-5,6,7,8-tetrahydropyrido[3,2-d]pyrimidin-2-yl)-N-(3-(4-(2,6-dioxopiperidin-3-yl)benzo[b]thiophen-2-yl)prop-2-yn-1-yl)picolinamide] |
| 20 to 39 | 10 to 99 | > 1000 | < 20 | Cc1cc2c(N3CCCc4nc(-c5ccc(C(=O)NCC#Cc6nc7cccc(C8CCC(=O)NC8=O)n7n6)nc5)ncc43)cc(C3CCOCC3)cc2n(C)c1=O (stereo not shown) [Example B156, 5-(5-(1,3-dimethyl-2-oxo-7-(tetrahydro-2H-pyran-4-yl)-1,2-dihydroquinolin-5-yl)-5,6,7,8-tetrahydropyrido[3,2-d]pyrimidin-2-yl)-N-(3-(5-(2,6-dioxopiperidin-3-yl)-[1,2,4]triazolo [1,5-a]pyridin-2-yl)prop-2-yn-1-yl) picolinamide] |
